According to article PMC5667506, “Potent and selective inhibition of SH3 domains with dirhodium metalloinhibitors” (Chemical Science, 2015):
pKd: −log10 of the molar value. Several values for one entry are separate records, joined by “and”; a condition that tells them apart may be missing. Equal entries are not always repeated. Each block holds one substance with its values, some of them ahead of it. Rh2(OAc)3 = dirhodium(II) triacetate, bound to the side-chain carboxylate

Tests used:
Lyn SH3 domain = molecular target: T1, Lyn SH3 domain (Homo sapiens, UniProt P07948); assay: ITC binding of metallopeptides to Lyn SH3 domain
T1 construct: The lyn SH3 domain was amplified by PCR using Phusion DNA polymerase; GST (N, cleaved yes); made in house; host or cells: E. coli BL21 (DE3)
Description: The His96 is unique among Src-family sequences, and the His78 appears only in Hck and Lck. Individual amino-acid alterations are the only factors that might distinguish the nearly identical secondary structures and peptide-binding preferences of Src-family SH3 domains (cf. Fig. 1a and b). Based on a Src-family SH3-binding sequence (VSL12),[37] known to bind with similar affinity across Src-family SH3 domains,[38] we made metallopeptides with rhodium in different sites near the beginning of the SH3-binding peptide. […] The optimal metallopeptide, S2E^Rh, bound to Lyn with 6 nM affinity. The accuracy of ITC data is reduced for C values >1000 (C = [protein]/K d). Under these conditions the distribution of data points on the isotherm reduces the precision of the global fit. Since the enthalpic contributions to binding in the formation of the complexes described in this work were high, we were able to use a low protein concentration (4 μM) which ensured that our C values were well below this upper range. […] In broad terms, the thermodynamics—favourable enthalpy and unfavourable entropy—are consistent with previous examinations of peptide–SH3 binding (see Table S1 ^† for thermodynamic data).[39] Moving the location of the rhodium center toward the N-terminus, away from the histidine, led to a drop in binding affinity. The N13D^Rh metallopeptide, a convenient negative control with the rhodium center too far for histidine interactions, binds with micromolar activity, similar to simple SH3 binding of the parent peptide. We conclude that the vast affinity improvement is due to rhodium coordination to unique histidine residue(s).
(§1) All chemical reagents were purchased from Sigma-Aldrich and were used without further purification.
(§2) Peptide synthesis. All peptides were synthesized manually or with an AAPPTEC APEX 396 Automated Multipeptide Synthesizer using standard solid-phase Fmoc protocols.1,2 Peptides were prepared as C-terminal amides using Rink amide MBHA resin (AAPPTEC) and were acetylated at the N-terminus prior to cleavage from the resin. Peptides and metallopeptides were purified by reverse-phase HPLC.
(§3) HPLC separation. Reverse-phase HPLC was performed on a Shimadzu CBM-20A instrument with Phenomenex Jupiter 4μ Proteo 90A (250 × 15 mm preparative) and Phenomenex Jupiter 4μ Proteo 90A (250 × 4.6 mm analytical) columns. The columns were eluted with a gradient of acetonitrile in water (10-90%) (flow rates of 8 mL/min and 1 mL/min for preparative and analytical columns, respectively). Trifluoroacetic acid (0.1%) was added to all eluents. […]
(§4) ITC analysis. ITC experiments were carried out on a VP-ITC instrument (MicroCal) at 25 °C. Titrations of 275 μM peptide into 18 μM SH3 domain proteins were used for all titrations, except for the titration of S2ERh into Lyn SH3 domain, where the lower concentrations of 69 µM S2ERh peptide and 4 µM Lyn SH3 were used to attain a c-value for the titration within the accepted limts for ITC experiments ([…]).3
(§5) Heats of dilutions were measured independently for each experiment by titrating 275 μM peptide into buffer (20 mM phosphate buffer, pH 7, 150 mM NaCl, 1 mM EDTA). All experimental data were fitted using a one set of sites binding model in Origin software (MicroCal) except for the data with Hck SH3 domain. With Hck only, the non-peptide specific binding of dirhodium tetraacetate to Hck SH3 domain could not be treated as negligible, despite the very weak interaction (88 µM), due to the larger enthalpy contribution observed for non-specific binding to this SH3 domain, so the titrations of peptide into Hck were fitted using a 2 set of sites binding model where the stoichiometry for the second set of sites was fixed at 2.0. […]
(§6) Mass spectrometry. ESI-MS was performed on a Bruker Daltonics micrOTOF instrument.
Known compounds and proteins. Several metallopeptides (S2ERh, L3ERh, R5ERh, and 13DRh) were reported previously and […]

Abl SH3 domain = molecular target: T2, Abl SH3 domain (Homo sapiens, UniProt P00519); assay: ITC binding to Abl SH3 domain
T2 construct: The abl SH3 domain was amplified by PCR using Phusion DNA polymerase; GST (N, cleaved yes); made in house; host or cells: E. coli BL21 (DE3)
Procedure: as §1, §2
(§7) HPLC separation. Reverse-phase HPLC was performed on a Shimadzu CBM-20A instrument with Phenomenex Jupiter 4μ Proteo 90A (250 × 15 mm preparative) and Phenomenex Jupiter 4μ Proteo 90A (250 × 4.6 mm analytical) columns. The columns were eluted with a gradient of acetonitrile in water (10-90%) (flow rates of 8 mL/min and 1 mL/min for preparative and analytical columns, respectively). Trifluoroacetic acid (0.1%) was added to all eluents.
(§8) FPLC separation. Analytical FPLC was performed on an ÄKTA instrument with Superdex Peptide PE 7.5/300 column. The column was equilibrated with buffer (150 mM NaCl, 50 mM Tris, pH 7.0) at flow rate of 0.2 mL/min.
as §4, §5, §6
(§9) Known compounds and proteins. Several metallopeptides (S2ERh, L3ERh, R5ERh, and 13DRh) were reported previously and were prepared by known protocols;4 alkyne-diazo 3,5 3-azido-7-hydroxycoumarin6 were synthesized following reported procedures; fyn, yes, lck, and src SH3 protein domains were prepared following published procedures.5 Abl, hck, and lyn SH3 domain plasmids were adapted from the previously reported genes;7 the gene templates were obtained from Addgene, ID

Hck SH3 domain = molecular target: T3, Hck SH3 domain (Homo sapiens, UniProt P08631); assay: ITC binding to Hck SH3 domain (two-sets-of-sites fit); settings: high affinity specific site
T3 construct: The hck SH3 domain was amplified by PCR using Phusion DNA polymerase; GST (N, cleaved yes); made in house; host or cells: E. coli BL21 (DE3)
Procedure: as §1, §2, §3, §4, §5, §6
as §9, with “ID […]” for “ID”
Table S1. Table of the thermodynamic parameters for binding of metallopeptides to SH3 domains, determined by isothermal […]
Protein Peptide Stoichiometry Kd ΔH -TΔS ΔG
(nM) (kcal mol-1) (kcal mol-1) (kcal mol-1)
* The binding isotherms for metallopeptide interactions with Hck were fitted using a two -sets-of-sites model with the stoichiometry for the second set of sites fixed to 2.0. The second set of binding sites was used to account for the weak, but not negligable, binding of the peptide to another surface of Hck SH3 domain, presumably through non-specific interactions of the dirhodium tetraacetate group. The thermodynamics for the high affinity specific binding site interaction are provided in this

Yes SH3 domain = molecular target: T4, Yes SH3 domain (Homo sapiens, UniProt P07947); assay: ITC binding to Yes SH3 domain; settings: Yes SH3, ITC
T4 construct: fyn, yes, lck, and src SH3 protein domains were prepared following published procedures; made in house
Procedure: as §1, §2, §7, §8, §4, §5, §6, §9

T4 sequence (P07947 91-152 limits assumed): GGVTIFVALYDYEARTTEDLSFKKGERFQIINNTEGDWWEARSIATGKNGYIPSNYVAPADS
T2 sequence (P00519 60-121): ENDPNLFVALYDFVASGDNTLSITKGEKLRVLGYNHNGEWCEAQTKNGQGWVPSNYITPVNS
T1 sequence (P07948 62-121): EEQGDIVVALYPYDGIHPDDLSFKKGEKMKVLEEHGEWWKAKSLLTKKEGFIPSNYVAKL
T3 sequence (P08631 77-139): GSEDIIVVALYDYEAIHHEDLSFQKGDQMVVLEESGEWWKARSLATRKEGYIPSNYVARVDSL

- pKd (Lyn SH3 domain; 25 °C): 8.22 and 8.21
- pKd (Abl SH3 domain; 25 °C): 5.24
Substance: AcVELARRPLPPLPN-NH2 (Ac-VE(Rh2(OAc)3)LARRPLPPLPN-NH2; also: metal complex: Glu2 carboxylate bound to dirhodium(II) triacetate) [S2E^Rh, rhodium(II) metallopeptide made from S2E peptide (Ac…-NH2) and Rh2(tfa)(OAc)3]

- pKd (Hck SH3 domain; 25 °C): 7.59
- pKd (Yes SH3 domain; 25 °C, read-out: SH3 Kd): 6.21
Substance: AcVELARRPLPPLPN-NH2 (Ac-VELARRPLPPLPN-NH2; also: Glu2 side-chain carboxylate bound to Rh2(OAc)3) [S2E^Rh, rhodium(II) metallopeptide made from S2E peptide (Ac…-NH2) and Rh2(tfa)(OAc)3]

- Stoichiometry (Lyn SH3 domain): 1.1
- -TΔS (Lyn SH3 domain; 25 °C): 2.7 kcal/mol
- ΔG (Lyn SH3 domain; 25 °C): -11.2 kcal/mol
- ΔH (Lyn SH3 domain; 25 °C): –13.9 kcal mol-1
- ΔH (Lyn SH3 domain; 25 °C, listed as S2ERh): -13.9 kcal/mol
- -TΔS (Hck SH3 domain; 25 °C): 6.9 kcal/mol
- ΔG (Hck SH3 domain; 25 °C): -10.4 kcal/mol
- ΔH (Hck SH3 domain; 25 °C): -17.2 kcal/mol
- Stoichiometry (Hck SH3 domain): 0.95
- Stoichiometry (Yes SH3 domain): 0.79
- -TΔS (Yes SH3 domain; 25 °C): 9.1 kcal/mol
- ΔG (Yes SH3 domain; 25 °C): -8.5 kcal/mol
- ΔH (Yes SH3 domain; 25 °C): -17.6 kcal/mol
- Stoichiometry (Abl SH3 domain): 1.5
- -TΔS (Abl SH3 domain; 25 °C): 10.6 kcal/mol
- ΔG (Abl SH3 domain; 25 °C): -7.1 kcal/mol
- ΔH (Abl SH3 domain; 25 °C): -17.8 kcal/mol
Substance: AcVELARRPLPPLPN-NH2 [S2E^Rh]
